# Like-named read-outs stand apart in the source and are kept apart here.
# Legend:
# [1] = Thermogravimetric analysis (TGA); assay type: physicochemical
# [2] = In-situ extraction: IL injection through column packed with oil sand; conditions: 100 g oil sand, 0.5 mL/min for 26 h, 24 h soak, 2 h re-injection
# Experimental: 100 g dry oil sand was packed into a steel tube (1.5×30 cm). The packed steel tube then was mounted into apparatus to allow injection of desired fluid through the oil sand while collecting the effluent for subsequent analysis (FIG. 61). The injection of [C8NH3][Oleate] was continuous for 26 h at an injection rate of 0.5 mL/min, and the injection pressure was stabilized in the range 1940-2000 kPa. The breakthrough time was around 35 min. This indicates the pore volume was around 17.5 ml. The total amount of [C8NH3][Oleate] injected was around 783 ml. […] At the first 2.5 h of injection, the bitumen recovery is significant, and the fluid recovered is black. However, with continuing injection the black intensity decreases gradually till the effluent is clear [C8NH3][Oleate] after 26 h.
# After 26 h of injection, the pump was stopped and the [C8NH3][Oleate]/Oil sand system in the steel column was left to soak for 24 h. Then injection was re-started with the same injection rate (0.5 mL/min) and the pressure stabilized at around 1850 kPa (similar level before soaking). The blackness of the fluid samples recovered during 2 h of injection post-soaking is not as intense as that during the same time for [C8NH3][Oleate] injection into the fresh oil sand. […]
# After terminating the experiment, the bitumen still in the oil sand was quantified using Dean Stark.
substance,measurement,setting,value
octylammonium oleate [[C8NH3][Oleate]],[C8NH3][Oleate] solubility,solvent: Acetonitrile,− (Insoluble (0.2 g in 3 mL solvent))
same,[C8NH3][Oleate] solubility,solvent: Chloroform,+ (Soluble (0.2 g in 0.5 mL solvent))
same,[C8NH3][Oleate] solubility,solvent: DI water,− (Insoluble (0.2 g in 3 mL solvent))
same,[C8NH3][Oleate] solubility,solvent: Dichlorobenzene,+ (Soluble (0.2 g in 0.5 mL solvent))
same,[C8NH3][Oleate] solubility,solvent: Dichloromethane,+ (Soluble (0.2 g in 0.5 mL solvent))
same,[C8NH3][Oleate] solubility,solvent: Dimethyl sulfoxide,− (Insoluble (0.2 g in 3 mL solvent))
same,[C8NH3][Oleate] solubility,solvent: Hexane,+ (Soluble (0.2 g in 0.5 mL solvent))
same,[C8NH3][Oleate] solubility,solvent: Methanol,+ (Soluble (0.2 g in 0.5 mL solvent))
same,[C8NH3][Oleate] solubility,solvent: Xylene,+ (Soluble (0.2 g in 0.5 mL solvent))
same,thermal decomposition temperature,[1],129 °C
same,"bitumen remaining in oil sand by Dean Stark extraction, of the initial amount of bitumen",[2],47.34%

# Reference: patent US12172919B2, “Deconstruction of oilsand materials using ionic liquids” (ADJACENCY LABS CORP., priority 2017, dated 2024)
